± gives the standard deviation of the averaged measurements.
Legend:
Test in all cases: level (log10 ratio to DMSO vehicle control); higher = higher biomarker level / cell amount than vehicle control
Settings in all cases: in DMSO
[1] = compound: CNS(=O)(=O)C(F)(F)C(F)(F)C(F)(F)C(F)(F)C(F)(F)C(F)(F)C(F)(F)C(F)(F)F [N-Methylperfluorooctanesulfonamide]
Protocol: (§1)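 BioMAP Diversity Plus panel of 12 human primary cell co-culture systems (3C, 4H, LPS, SAg, BT, BF4T, BE3C, CASM3C, HDF3CGF, KF3CT, MyoF, Mphg). Compounds were added 1 h before stimulation and left for 24 h (MyoF 48 h; BT 72 h for soluble read-outs or 6 d for IgG). Biomarkers were read by ELISA, cytotoxicity by SRB, PBMC viability and proliferation by Alamar Blue. Each well value was divided by the mean of 8 DMSO control wells on the same plate and log10 transformed; duplicate blinded samples were tested at 4 concentrations.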

[2] = compound: CCCCCCCCC(F)(F)C(F)(F)C(F)(F)C(F)(F)C(F)(F)C(F)(F)F [1-(Perfluorohexyl)octane]
Protocol: as §1

[3] = compound: OCC(F)(F)C(F)(F)C(F)(F)C(F)(F)C(F)(F)C(F)F [1H,1H,7H-Dodecafluoro-1-heptanol]
Protocol: as §1

[4] = compound: FC(F)(F)C(F)(F)C(F)(F)C(F)(F)C(F)(F)C(F)(F)C(F)(F)CCI [1-Iodo-1H,1H,2H,2H-perfluorononane]
Protocol: as §1

[5] = compound: O=S(=O)(O)C(F)(F)C(F)(F)C(F)(F)C(F)(F)C(F)(F)C(F)(F)C(F)(F)C(F)(F)F [Perfluorooctanesulfonic acid]
Protocol: as §1

[6] = compound: O=C(O)CCC(F)(F)C(F)(F)C(F)(F)F [3:3 Fluorotelomer carboxylic acid]
Protocol: as §1

[7] = compound: O=C(O)C(F)(F)C(F)(F)C(F)(F)C(F)(F)C(F)(F)F [Perfluorohexanoic acid]
Protocol: as §1

| Test System | level (log10) ([1]; 6700 nM) | level (log10) ([1]; 20000 nM) | level (log10) ([1]; 60000 nM) | level (log10) ([2]; 6700 nM) | level (log10) ([2]; 20000 nM) | level (log10) ([3]; 6700 nM) | level (log10) ([3]; 20000 nM) | level (log10) ([3]; 60000 nM) | level (log10) ([4]; 6700 nM) | level (log10) ([4]; 20000 nM) | level (log10) ([5]; 6700 nM) | level (log10) ([5]; 20000 nM) | level (log10) ([5]; 60000 nM) | level (log10) ([6]; 6700 nM) | level (log10) ([6]; 20000 nM) | level (log10) ([6]; 60000 nM) | level (log10) ([7]; 6700 nM) | level (log10) ([7]; 20000 nM) | level (log10) ([7]; 60000 nM) |
| --- | --- | --- | --- | --- | --- | --- | --- | --- | --- | --- | --- | --- | --- | --- | --- | --- | --- | --- | --- |
| MyoF:PAI-I | 0.0005 ± 0.022 | -0.0145 ± 0.012 | 0.0255 ± 0.0092 | -0.008 ± 0.0014 | -0.007 ± 0.0042 | -0.0045 ± 0.013 | -0.0015 ± 0.011 | 0.007 ± 0.0057 | -0.002 ± 0.02 | -0.0025 ± 0.0035 | 0.003 ± 0.017 | -0.0105 ± 0.0064 | -0.0055 ± 0.0092 | -0.0055 ± 0.005 | -0.003 | 0.003 ± 0.0042 | 0.0025 ± 0.005 | 0.002 ± 0.0028 | 0.009 |
| CASM3C:LDLR | 0.002 ± 0.013 | -0.0385 ± 0.059 | 0.0025 ± 0.0092 | -0.0125 ± 0.00071 | 0.019 ± 0.014 | 0.0045 ± 0.05 | -0.0135 ± 0.028 | 0.014 ± 0.024 | -0.016 ± 0.021 | 0.026 ± 0.024 | -0.002 ± 0.0085 | -0.007 ± 0.0014 | -0.0165 ± 0.032 | -0.0165 ± 0.00071 | -0.0105 ± 0.0035 | 0.011 ± 0.027 | 0.001 ± 0.0028 | -0.0065 ± 0.029 | -0.0025 ± 0.039 |
| 3C:CD142/Tissue Factor | -0.128 ± 0.0057 | -0.108 ± 0.031 | -0.106 ± 0.012 | -0.0025 ± 0.0078 | 0.0215 ± 0.023 | 0.001 ± 0.0057 | 0.017 ± 0.041 | 0.001 ± 0.05 | 0.01 ± 0.0071 | 0.0065 ± 0.0078 | -0.0185 ± 0.07 | -0.0285 ± 0.073 | 0.0315 ± 0.067 | -0.024 ± 0.0014 | 0.0015 ± 0.0078 | 0.0275 ± 0.011 | 0.011 ± 0.0085 | -0.0135 ± 0.0092 | 0.0005 ± 0.012 |
| BE3C:MMP-1 | 0.0895 ± 0.03 | 0.0995 ± 0.025 | 0.001 ± 0.054 | 0.0155 ± 0.018 | 0.0395 ± 0.053 | 0.0045 ± 0.022 | 0 ± 0.025 | 0.029 ± 0.0057 | 0.011 ± 0.0071 | 0.059 ± 0.031 | 0.149 ± 0.067 | 0.155 ± 0.012 | -0.0685 ± 0.26 | -0.006 ± 0.037 | -0.0235 ± 0.011 | 0.0125 ± 0.044 | -0.0075 ± 0.0064 | 0 ± 0.011 | 0.0275 ± 0.012 |
| HDF3CGF:CXCL9/MIG | -0.0065 ± 0.03 | 0.0105 ± 0.011 | -0.0205 ± 0.011 | 0.0055 ± 0.00071 | 0.025 ± 0.014 | 0.0015 ± 0.013 | -0.022 ± 0.038 | 0.011 ± 0.011 | -0.035 ± 0.0071 | -0.0875 ± 0.049 | -0.011 ± 0.013 | -0.0085 ± 0.029 | -0.0595 ± 0.0064 | -0.0115 ± 0.018 | -0.005 ± 0.0057 | 0.0295 ± 0.025 | 0.004 ± 0.0099 | 0.001 ± 0.0099 | -0.019 ± 0.034 |
| lMphg:CCL2/MCP-1 | -0.034 ± 0.0099 | -0.061 ± 0.033 | -0.0465 ± 0.04 | -0.0225 ± 0.022 | 0.0065 ± 0.025 | -0.011 ± 0.014 | -0.009 ± 0.024 | 0.0115 ± 0.035 | -0.014 ± 0.0071 | 0.0385 ± 0.032 | -0.0055 ± 0.0092 | 0.0015 ± 0.0064 | -0.0075 ± 0.04 | -0.012 ± 0.02 | -0.01 ± 0.018 | 0.017 ± 0.02 | -0.0065 ± 0.028 | -0.021 ± 0.0099 | -0.014 ± 0.041 |
| BE3C:SRB | -0.0085 ± 0.00071 | -0.014 ± 0.0085 | 0.0005 ± 0.029 | -0.0005 ± 0.0021 | 0.002 ± 0.0028 | 0.001 ± 0.0071 | -0.009 ± 0.011 | 0.0025 ± 0.00071 | -0.0035 ± 0.0021 | 0.0005 ± 0.00071 | -0.0095 ± 0.0064 | -0.2205 ± 0.00071 | -0.371 ± 0.016 | -0.0065 ± 0.0064 | -0.0065 ± 0.005 | 0.001 ± 0.013 | -0.001 | -0.006 ± 0.0014 | 0.009 ± 0.018 |
| MyoF:MMP-1 | -0.036 ± 0.013 | -0.0325 ± 0.018 | 0.008 ± 0.02 | -0.002 ± 0.017 | -0.01 ± 0.0085 | -0.025 ± 0.035 | -0.029 ± 0.021 | -0.0015 ± 0.012 | -0.012 ± 0.013 | -0.0145 ± 0.025 | -0.031 ± 0.0014 | -0.031 ± 0.013 | 0.038 ± 0.048 | -0.0385 ± 0.052 | -0.0305 ± 0.013 | 0.01 ± 0.028 | -0.0115 ± 0.0035 | -0.0055 ± 0.019 | 0.0235 ± 0.025 |
| HDF3CGF:Collagen III | -0.102 ± 0.0035 | -0.143 ± 0.011 | -0.092 ± 0.037 | -0.029 ± 0.042 | -0.0315 ± 0.042 | -0.002 ± 0.018 | -0.0065 ± 0.0078 | 0.0145 ± 0.015 | -0.063 ± 0.023 | -0.138 ± 0.028 | -0.024 ± 0.031 | -0.0155 ± 0.015 | -0.0585 ± 0.013 | -0.012 ± 0.017 | -0.007 ± 0.025 | 0.0245 ± 0.054 | 0.0515 ± 0.013 | 0.0305 ± 0.0092 | -0.0245 ± 0.071 |
| HDF3CGF:M-CSF | 0.0055 ± 0.018 | 0.006 ± 0.025 | -0.001 ± 0.027 | -0.022 ± 0.031 | -0.0025 ± 0.021 | -0.0025 ± 0.018 | -0.0055 ± 0.00071 | -0.0045 ± 0.0035 | -0.0895 ± 0.049 | -0.12 ± 0.064 | 0.0225 ± 0.018 | 0.018 ± 0.013 | -0.075 ± 0.0042 | 0.002 ± 0.0099 | -0.004 ± 0.0042 | 0.001 ± 0.013 | -0.015 ± 0.059 | 0.013 ± 0.021 | -0.006 ± 0.05 |
| 3C:CD54/ICAM-1 | -0.0265 ± 0.022 | 0.103 ± 0.026 | 0.043 ± 0.0014 | 0.0025 ± 0.013 | 0.0165 ± 0.005 | -0.009 ± 0.011 | -0.003 ± 0.0099 | -0.0055 ± 0.0021 | -0.0115 ± 0.00071 | 0.0025 ± 0.016 | 0.004 ± 0.023 | 0.0185 ± 0.019 | 0.071 ± 0.024 | -0.019 ± 0.0099 | -0.009 ± 0.023 | -0.0015 ± 0.023 | 0.005 ± 0.013 | -0.0045 ± 0.016 | -0.0005 ± 0.019 |

From the supplement of paper PMC10331698
